Experimental data taken from article PMC6823370, “A novel nucleoside rescue metabolic pathway may be responsible for therapeutic effect of orally administered cordycepin” (Scientific Reports, 2019).

Legend:
RAW264.7 cells = experiment: Repression of inflammatory gene expression in LPS-stimulated RAW264.7 cells (qPCR); assay type: cell-based, mouse; settings: 20 µM, 1 h prior to LPS stimulation
Method: RAW 264.7 mouse macrophage cells were cultured in DMEM supplemented with 10% FBS. Prior to experiments, cells were washed with PBS and cells were maintained in DMEM with 0.5% FBS or 10% FBS for 24 h. LPS was added at 1 µg/mL, 1 h before compound treatment, when needed. When the cells were analysed for concentration levels of cordycepin, 3′-deoxyinosine and CordyTP, the cells were washed twice with PBS. The cells were then treated with methanol and mixed vigorously before the mixture was harvested. The mixture was filtered using filter tubes mentioned above and the filtrate was analysed by liquid chromatography coupled with tandem mass spectrometry (LC-MS/MS). For determination of relative mRNA levels, RNA was isolated from the lysates using an RNA isolation kit, following manufacturer’s protocol (Promega, Madison, WI, cat no. Z6012). RNA was reverse transcribed to cDNA using SuperScript™ III reverse transcriptase (Invitrogen, Carlsbad, CA). Quantitative polymerase chain reaction (qPCR), was performed with Qiagen Rotor-Gene Q qPCR machine (Qiagen, Hilden, Germany) using Promega SYBR Green GoTaq® qPCR master mix (Promega).
Figure 3 Repression effect on inflammatory gene expression. (a) NBTI or ITu treatment prior to cordycepin treatment suppresses effect of cordycepin. RAW264.7 cells were treated with 10 µM NBTI, 100 nM ITu or DMSO (Ctrl, control) 15 min prior to cordycepin treatment. The cells were stimulated with LPS 1 h after cordycepin treatment (mean ± SD, n = 3). **p < 0.01; ***p < 0.001 compared to DMSO treatment (labelled as Ctrl). (b) 3′-deoxyinosine exerts same repression effect as cordycepin, although to a lesser degree. RAW264.7 cells were treated with 20 µM cordycepin, 20 µM 3′-deoxyinosine (3DI) or DMSO (Ctrl, control) for 1 h prior to LPS stimulation (mean ± SD, n = 3). **p < 0.01; ***p < 0.001 compared to without compound treatment (labelled as LPS).

[1] = Sample storage stability of cordycepin in rat plasma containing pentostatin; assay type: in vitro ADME; settings: for Autosampler (24 h, 4°C) sample stability: processed samples; for Freeze-thaw (3 cycles) sample stability / Long-term (4 weeks, -80°C) sample stability / Long-term (5 days, -80°C) sample stability / Short-term (4 h, RT) sample stability: rat plasma with 10 µM pentostatin
Method: Stability of cordycepin was tested in different conditions. […] Samples withdrawn at pre-determined time points were prepared and analysed for stability and degradation rate of cordycepin in rat plasma.
Sample storage stability studies were conducted with QC samples (LQC, MQC and HQC; 5 replicates for each condition). […] Short-term (benchtop) stability was tested after storing spiked QC samples for 4 h at room temperature. Long-term stability was tested in storage condition of -80 °C for 5 days and 4 weeks. Freeze-thaw cycle stability was tested after undergoing three cycles between -80 °C and room temperature. Autosampler stability was tested by analysing processed QC samples after storage at 4 °C for 24 h. All stability samples were quantified with freshly prepared calibration curve samples. Stock solution stability was tested by analysing five different aliquots of 1000 ng/mL working standard solution stored for 6 h at room temperature and comparing to a fresh working standard solution.

## Nc1ncnc2c1ncn2[C@@H]1O[C@H](CO)C[C@H]1O [cordycepin, 3′-deoxyadenosine]
RAW264.7 cells
  effect on expression of inflammatory genes: inhibitory effect
[1]; HQC 4000 ng/mL
  Autosampler (24 h, 4°C) sample stability: 100.4 ± 3.4
  Freeze-thaw (3 cycles) sample stability: 106.7 ± 7.4
  Long-term (4 weeks, -80°C) sample stability: 103.8 ± 1.5
  Long-term (5 days, -80°C) sample stability: 98.6 ± 5.4
  Short-term (4 h, RT) sample stability: 107.4 ± 2.9
[1]; LQC 5 ng/mL
  Autosampler (24 h, 4°C) sample stability: 113.8 ± 8.9
  Freeze-thaw (3 cycles) sample stability: 104.5 ± 7.4
  Long-term (4 weeks, -80°C) sample stability: 93.5 ± 7.0
  Long-term (5 days, -80°C) sample stability: 107.4 ± 3.8
  Short-term (4 h, RT) sample stability: 104.7 ± 9.2
[1]; MQC 80 ng/mL
  Autosampler (24 h, 4°C) sample stability: 91.6 ± 3.6
  Freeze-thaw (3 cycles) sample stability: 113.1 ± 13.1
  Long-term (4 weeks, -80°C) sample stability: 113.5 ± 3.3
  Long-term (5 days, -80°C) sample stability: 110.0 ± 3.3
  Short-term (4 h, RT) sample stability: 98.2 ± 7.3
